This is an account of results in PMC13371181, “A paracrine-to-autocrine shunt of GREM1 fuels colorectal cancer metastasis via ACVR1C” (Molecular Cancer, 2026).

Entries after “also recorded” stand apart in the source; their conditions may differ.

Assay [1] concerns ACVR1C–SMAD2/3 pathway in HCT116 and SW480 cells. As to the kind of experiment: Immunoblotting p-SMAD2/3 (ACVR1C pathway). It is filed as cell-based, human. The settings on record: HCT116 and SW480 cells, immunoblotting; GREM1-CM + GREM1 BAb or + SB505124 (1 µM). How it is done:
(§1) To investigate the effect of secreted GREM1 on CRC cells, an in vitro GREM1 secretion system was established using HEK293 cells. Stably GREM1-expressing cells (pcDNA3.1-GREM1) and empty-vector transfected cells (pcDNA3.1) were cultured in DMEM/F12 medium with 10% FBS until 40% confluence. After complete removal of the normal culture medium, HEK293-GREM1 and HEK293-Vec cells were continuously cultured in DMEM/F12 medium without FBS for 5 days before medium collection. GREM1 or Vector conditioned medium (GREM1-CM/Vec-CM) was then centrifuged at 1000 rpm for 30 min and the supernatant was collected for further study.
Protein was extracted from the cells with RIPA buffer (Beyotime, P0018) or NP40 lysis buffer (Beyotime, P0013F) and separated by SDS-PAGE, and transferred to polyvinylidene difluoride membranes. […] Band intensity was quantified using Fiji (ImageJ) by grayscale analysis.

Assay [2] relates to HCT116 cells. Kind of assay: Scratch assay, HCT116. It is filed as cell-based, human. The settings on record: HCT116, scratch assay 24 h; n = 3 independent experiments. On the procedure:
as §1
Cells were seeded into 6-well plates after centrifugation and digestion with 0.05% trypsin. When the cell density reached 90%, three vertical lines were scratched in each well with a 10 µL pipette tip and the floating cells were gently washed away with 1×PBS. Complete medium was added, and images of the scratch area were taken at 0 h. Three different fields of view were selected for each well. After photography, the medium was replaced with serum-free medium. Wound healing was documented at the same location after 24–48 h of incubation.

Assay [3] deals with HCT116 cells. As to the kind of experiment: Subcutaneous transplantation of GREM1-CM-pretreated HCT116 cells in nude mice. Format: in vivo, human cells in nude mice. The settings on record: SB505124 10 mg/kg i.p. every other day. How it is done:
For cecum-to-liver metastasis model, 1 × 10^6 MC38-luc cells were resuspended in 50 µL of PBS and injected into the cecum of GD mice or control mice (Grem1-CreER^T2/Rosa-LSL-DTA mice) (n = 6 mice in each group); 5 × 10^6 HCT116-luc cells transduced with lentivirus carrying a pLV or pLV-GREM1 were injected into the cecum of NOG mice (n = 5 mice in each group). SB505124 was administered via intraperitoneal injection at a dose of 10 mg/kg once every other day. The metastases were examined every 5 days post injection using an IVIS Lumina Imaging System. Mice were euthanized between 2 and 6 weeks after injection. […] Mice were euthanized 4 weeks after injection. The tumor tissues were collected for further evaluation.
Figure S8. SB505124 inhibits GREM1-CM-induced EMT and metastasis of CRC in vivo. […] D, RT–qPCR analysis of epithelial marker CDH1 and mesenchymal markers CTNNB1, SNAI1, ZEB1 in subcutaneous tumor tissues from the indicated treatment groups. n = 3 independent experiments. E-G, Representative IF images (E) and quantification (F, G) of E-CAD (green), SNAIL (red), and DAPI (blue) staining in tumors from the indicated groups. […] H, I, Representative IVIS images (H) and quantification (I) of NOG mice that were injected with HCT116-luc cells in the cecum wall and treated with either SB505124 or vehicle via abdominal injection. Liver metastases were imaged and quantified using the IVIS Lumina Imaging System (n = 5 mice per group). For B–D, F, G and I, data are presented as mean ± s.e.m. P values were calculated using one-way ANOVA with Bonferroni multiple-comparison test (B–D, F, and G) or two-tailed Student’s t-test (I).

As to `Cc1cccc(-c2[nH]c(C(C)(C)C)nc2-c2ccc3c(c2)OCO3)n1` [SB505124], in assay [1], the “GREM1-CM-induced p-SMAD2/3, effect of inhibitor” value was “significantly blocked GREM1-CM–induced p-SMAD2/3 activation and EMT”. For the same molecule, the “GREM1-CM-induced migration, effect of inhibitor” value in assay [2] is recorded as “abolished; also recorded: suppressed”. Further, in assay [3] (IF, n = 5 mice per group), the “E-CAD and SNAIL expression in subcutaneous tumors” value is “restored E-CAD expression and suppressed SNAIL expression”. The “subcutaneous tumor progression and EMT” value in assay [3] (nude mice, GREM1-CM-pretreated HCT116, n = 6 mice per group) was “suppressed tumor progression and EMT”.
